Results published in EP2127664A1, “Change of the load state of MHC molecules by dipeptides” (priority 2008, dated 2009).
Entries after “also recorded” stand apart in the source; their conditions may differ. Peptide text beside a SMILES is read from it.

Columns and labels:
[1] = biological target: T1, soluble HLA-DR1 (DRA*0101, DRB1*0101) (Homo sapiens, UniProt P01903+P01911, A100R/D57E/F55L/F60I/F76Y/I96L/L162R/M171V/P40L/Q125E/R42F/V115G/Y59C); assay: Peptide loading of soluble HLA-DR1 with HA306-318 (ELISA); assay type: biochemical; conditions: for complex formation between HA306-318 and soluble HLA-DR1 (catalytic activity): titrated amounts of dipeptide, 100nM HLA-DR1, phosphate-buffered saline pH 7.4, 37 °C, 1 h; for catalytic rate enhancement: mean activity, soluble HLA-DR1 (DRB1*0101)
T1 construct: Recombinant soluble HLA-DR1 (DRA*0101, DRB1*0101) (Sloan, V. S (1995) Nature 375, 802-806) was produced in S2 insect cells; made in house; host or cells: S2 insect cells
Description: Antibodies and soluble HLA-DR1. The HLA-DR-specific antibody L243 (ATCC) was purified.

human T cell line PD2 = assay: In vitro T cell assay with HA306-318 and peptide-MLE; assay type: cell-based
Description: (§1) Cells. Stable transfection of L929 fibroblasts (ATCC) were done to generate L101 (DRB1*0101 b86 G) or L101 (β86V) respectively (Höpner et al., (2006), supra). Epstein-Barr virus-transformed B cell 721.221(DRB1*0101) was obtained from ATCC. EvHA/X5 (DRB1*0101-restricted, HA306-318-specific) were derived from HLA-DR1tg mice (Rosloniec, E. F. (1997) J. Exp. Med. 185, 1113-1122) and were generated after fusion of the CD4+ EvHA T cell line with the BW cell (Höpner et al., (2006), supra). CD4+ T cell line PD2 , HLA-DR1 restricted and HA 306-318 specific (Falk K, et al., (2000) Eur. J. Immunol. 30, 3012-3020), ABL 908-922-specific T cell hybridoma SaABL/G2 was generated after fusing a CD4+ T cell line generated in HLA-DR1 […] mice with the BW cell.
(§2) T cell Assays. For pulse wash experiments 5x 10^4 HLA-DR-expressing cells/well were loaded for 4 h with antigenic peptides in the presence and absence of dipeptides as described above. Cells were then washed, and 5x10^4 T cells were added to the culture, which was then incubated for 24 h in Dulbecco's modified Eagle's medium, 5% fetal calf serum in 96-well U-bottom plates. However for permanent assay, HLA-DR expressing cells, T cells and dipeptide stayed together in the reaction for 48 hrs. T cell response was determined in a secondary assay with CTL-L cells (ATCC) as described previously (Falk, K., (2002) J. Biol. Chem. 277, 2709-2715). In experiments with PD-2 cell line, HTR's (as APCs) were pre-irradiated for 520 sec and then used for experiments.

[2] = test system: HLA-DR1 restricted mouse T cell hybridoma EvHA/X5; assay: as above; assay type: cell-based
Description: as §1, §2

CLIP/HLA-DR1 complex = biological target: T2, CLIP/HLA-DR1 complex (Homo sapiens, UniProt P01903+P01911, A100R/D57E/F55L/F60I/F76Y/I96L/L162R/M171V/P40L/Q125E/R42F/V115G/Y59C); assay: Ligand exchange / complex dissociation of CLIP/HLA-DR1 (ELISA); assay type: biochemical; conditions: 10 mM dipeptide; in the presence of free HA306-318
T2 construct: soluble class II MHC molecules were preloaded with the CLIP peptide; made in house; host or cells: S2 insect cells
Method: Ligand-exchange of soluble HLA-DR molecules- In vitro ligand exchange experiments were carried out by loading 1,5 µM of HLA-DR1 with biotinylated IC106-120, for 20 hrs (Höpner et al., (2006), supra) in presence of 5% ethanol. HLA-DR1:IC complex was diluted to 1:15 and incubated with 200µg/ml HA peptide in presence and absence of 10mM dipeptide.

[3] = test system: CD4+ T cell hybridoma specific for the ABL epitope (SaABL/G5); assay: T cell assay, ABL908-922-loaded fibroblasts expressing HLA-DR1 (β86G→V); assay type: cell-based, mice; conditions: fibroblasts with mutated HLA-DR1 (β86G→V) loaded in the presence of dipeptides
Description: as §1
as §2, with “In experiments with PD-2 cell line, HTR's (as APCs) were pre-irradiated for 520 sec and then used for experiments.” left out

HLA-DR1 (β86G→V) = biological target: T3, HLA-DR1 (β86G→V) (Homo sapiens, UniProt P01903+P01911, A100R/D57E/F55L/F60I/F76Y/I96L/L162R/M171V/P40L/Q125E/R42F/Y59C); assay: Loading of soluble mutated HLA-DR1 with ABL908-922 (ELISA); assay type: biochemical; conditions: titrated amounts of dipeptide
T3 construct: Recombinant soluble HLA-DR1 molecules were mutated at position 86; made in house; host or cells: S2 insect cells (printed for the recombinant soluble HLA-DR1; not repeated for the mutants)
Method: Peptide loading/ of Soluble HLA-DR Molecules- For in vitro loading experiments 100nM HLA-DR1 was incubated with 40 µg/ml (phosphate-buffered saline, pH 7.4, 37 °C, 1 h).

[4] = biological target: T4, fibroblast cells transfected with mutated HLA-DR1 (β86G→V) (Homo sapiens, UniProt P01903+P01911, A100R/D57E/F55L/F60I/F76Y/I96L/L162R/M171V/P40L/Q125E/R42F/Y59C); assay: Peptide loading of cell surface MHC molecules with ABL908-922 (FACS); assay type: cell-based; conditions: fibroblasts expressing HLA-DR1 (β86G→V)
T4 construct: transfected with full length versions of wt HLA-DR1 (β86G) and mutated HLA-DR1 (β86G→V); expressed in transfected cells
Description: as §1
Peptide Loading of Cell Surface MHC Molecules. For loading experiments biotinylated antigenic peptides were incubated with 10 x 10^4 HLA-DR expressing cells/well in presence and absence of dipeptides at 37 °C in Dulbecco's modified Eagle's medium, 5% fetal calf serum in a 96 well V bottom plate for 4 hrs. FACS analysis was done as described previously (Höpner et al., (2006), supra).

[5] = in the presence of Ac-FR-NH2 (5 mM per Fig. 5 legend)
[6] = in the absence of the dipeptide catalyst

C[C@H](N)C(=O)N[C@@H](CCCNC(=N)N)C(=O)O [AR] (H-Ala-Arg-OH)
complex formation between HA306-318 and soluble HLA-DR1 (catalytic activity) [1]: No effect

CC(=O)N[C@@H](C)C(=O)N[C@@H](CCCNC(=N)N)C(N)=O [Ac-AR-NH2] (Ac-Ala-Arg-NH2)
complex formation between HA306-318 and soluble HLA-DR1 (catalytic activity) [1]: completely inactive; also recorded: abrogated the effect

CC(=O)N[C@@H](CCC(=O)O)C(=O)N[C@@H](CCCNC(=N)N)C(N)=O [Ac-ER-NH2] (Ac-Glu-Arg-NH2)
complex formation between HA306-318 and soluble HLA-DR1 (catalytic activity) [1]: No enhancement; also recorded: abrogated the effect

CC(=O)N[C@@H](Cc1ccccc1)C(=O)N[C@@H](CCCNC(=N)N)C(N)=O [Ac-FR-NH2] (Ac-Phe-Arg-NH2)
on-rate is amplified by a factor of ([1]; in the presence of 1 mM): 7.08
catalytic rate enhancement [1]: 6.08 mM⁻¹
half-maximal response (concentration of HA306-318) (human T cell line PD2; [5]): 0.23 ng/mL
half-maximal response (concentration of HA306-318) [2, 5]: 0.65 ng/mL

CC(=O)N[C@@H](CC(C)C)C(=O)N[C@@H](CCCNC(=N)N)C(N)=O [Ac-LR-NH2]
complex dissociation of CLIP/HLA-DR1 (CLIP/HLA-DR1 complex): weaker dissociation
ABL908-922-specific T cell stimulation [3]: most efficient ABL908-922-specific stimulation
enhancement of ABL908-922 loading (HLA-DR1 (β86G→V)): best enhancement
effect on the HA306-318-specific T cell response (human T cell line PD2; compared with Ac-FR-NH2): weaker effects
effect on the HA306-318-specific T cell response ([2]; compared with Ac-FR-NH2): weaker effects
loading of cells with ABL908-922 determined by FACS [4]: most effective

CC(=O)N[C@@H](Cc1c[nH]c2ccccc12)C(=O)N[C@@H](CCCNC(=N)N)C(N)=O [Ac-WR-NH2] (Ac-Trp-Arg-NH2)
catalytic rate enhancement [1]: 3.54 mM⁻¹

CC(=O)N[C@@H](Cc1ccc(O)cc1)C(=O)N[C@@H](CCCNC(=N)N)C(N)=O [Ac-YR-NH2]
complex dissociation of CLIP/HLA-DR1 (CLIP/HLA-DR1 complex): weaker dissociation
increase in the catalytic activity compared to the unmodified YR peptide ([1]; complex formation between HA306-318 and HLA-DR1): more than 10 fold
catalytic rate enhancement [1]: 3.39 mM⁻¹

CC(=O)N[C@@H](Cc1ccc(O)cc1)C(=O)N[C@@H](CCCNC(=N)N)C(=O)O [Ac-YR]
complex formation between HA306-318 and soluble HLA-DR1 (catalytic activity) [1]: partial effect

N=C(N)NCCC[C@H](NC(=O)[C@@H](N)Cc1ccc(O)cc1)C(N)=O [YR-NH2]
complex formation between HA306-318 and soluble HLA-DR1 (catalytic activity) [1]: partial effect

N=C(N)NCCC[C@H](NC(=O)[C@@H](N)Cc1ccc(O)cc1)C(=O)O [YR]
complex formation between HA306-318 and soluble HLA-DR1 (catalytic activity) [1]: accelerated the MHC-loading with the HA306-318 peptide in a dose-dependent way

HA306-318: high-affinity peptide ligand / antigen HA306-318 (PKYVKQNTLKLAT) [reference compound]
half-maximal response (concentration of HA306-318) (human T cell line PD2; [6]): 14 ng/mL
half-maximal response (concentration of HA306-318) [2, 6]: 31 ng/mL
